{"source": "patent US10537541B2", "about": "“Treatment of focal segmental glomerular sclerosis (FSGS) using therapeutically effective oral doses of 10-nitro-9(E)-octadec-9-enoic acid” (Complexa, Inc., priority 2015, dated 2020)", "key": {"[1]": {"test_system": "healthy male subjects", "test": "Pharmacokinetic interaction study in healthy males: safety and tolerability", "type": "in vivo, human", "conditions": "healthy males", "experimental": "Safety and tolerability was evaluated throughout the study. The timing of discharge was determined by the Investigator or designee based on safety and tolerability assessment. On dosing days, subjects remained in the research unit for a minimum of 1 h after dosing prior to discharge. On Day 4, on the first day of 10-nitro-9(E)-octadec-9-enoic acid dosing, subjects remained in the unit for 4 to 6 h after dosing prior to discharge to assess safety and tolerability.\nSafety and PK assessments were evaluated throughout the study. During the in-house portion of the study, urine was collected over the 24-h period on Day 2 and Day 12.\nSafety was evaluated by physical examinations; adverse events (AEs); vital signs (blood pressure, heart rate, respiratory rate); clinical laboratory values (hematology, biochemistry, and urinalysis), specifically, serum Mg and CPK and electrocardiograms (ECGs).\nTriplicate ECGs were obtained just prior to the start of dosing on Day 1 and single ECGs were obtained at all other time points. The average of the 3 ECG interval measurements at the pre-dose time point was considered as baseline. All 12-Lead ECGs were obtained after the subject has rested in a fully supine position for at least 10 minutes. There were no clinically significant abnormalities reported on any electrocardiogram (ECG) parameter. There were no QT/QTcF interval prolongations observed during the study."}, "[2]": {"test_system": "rat model of renal ischemia/reperfusion", "test": "Rat model of renal ischemia/reperfusion (acute kidney injury)", "type": "in vivo", "conditions": "rats", "experimental": "Prevention of ischemic reperfusion injury: Studies were performed to test the effectiveness and the dose/exposure-response relationship of 10-nitro-9(E)-octadec-9-enoic acid in reducing acute kidney injury in a rat model of renal ischemia/reperfusion when administered prior to the insult. A well-established and reproducible rat model of contrast-induced nephropathy was not available. Because ischemic/reperfusion injury is a facet of contrast-induced nephropathy, it was considered a reasonable alternative. In this model, the renal arteries of the rat were clamped for 35 min, followed by reperfusion. Serum creatinine was measured daily for 72 hours. The animals were then sacrificed for tissue and terminal plasma. 10-nitro-9(E)-octadec-9-enoic acid was administered over 15 min intravenously at various doses at one hour prior to the injury. […]\n10-nitro-9(E)-octadec-9-enoic acid (2.5, 12.5, and 25 mg/kg) was administered 1 hr prior to the ischemic event. Plasma samples were taken at 0, 24, 48, and 72 hr following the ischemic event, and serum creatinine levels were measured in batches using mass spectrometry to achieve precision in the results."}, "[3]": {"test_system": "deoxycorticosterone acetate (DOCA)/salt-induced model of FSGS", "test": "DOCA salt study: urinary isoprostane and tetranor-PGDM by LC-MS", "type": "in vivo, mice (129/sv strain)", "conditions": "DOCA/salt mice", "experimental": "Induction of model: Male mice (129/sv strain) were purchased from Taconic Labs. The animals were uninephrectomized (Unx) at 6 weeks of age by the vendor and shipped one week after surgery. At 2 weeks post Unx, a DOCA or placebo pellet (21-day release pellets, 50 mg/pellet, Innovative Research of America, Sarasota, Fla.) was implanted s.c. All mice were then placed on a semisynthetic diet which contained a moderate fat content and a low phytoestrogen/anti-oxidant level, which approximates a normal human diet (4). A second DOCA or placebo pellet was implanted three weeks later.\nTreatment: Mice were treated with placebo, 10-nitro-9(E)-octadec-9-enoic acid at a dose of 2.5 and 12.5 mg/kg, or enalapril (standard of care) for 4 weeks by oral gavage starting 2 weeks after the first DOCA implantation. One percent NaCl in tap water was given to each group except the sham control group. Body weight was measured weekly, and doses were readjusted based on the current body weight. Urine and blood samples were collected prior to treatment and at week 2 and 4 of treatment. Mice were terminated at week 4. Data is presented as the mean+SEM for the number of animals listed in each group.\nIsoprostanes are a unique series of prostaglandin-like compounds formed in vivo via a non-enzymatic mechanism involving the free radical-initiated peroxidation of arachidonic acid. It has been shown that 8-iso-PGF2a (15-F2t-isoprostane) is the isoprostane that correlates best with increasing oxidative stress. Therefore, to assess the effect of treatment on oxidative stress, this isoform was measured using LC-MS. Also measured was tetranor-PGDM, a urinary metabolite of prostaglandin D2. […] On the other hand, elevated tetranor-PGDM was lowered with treatment of 10-nitro-9(E)-octadec-9-enoic acid and enalapril at the end time point (FIG. 18)."}}, "note": "Entries after “also recorded” stand apart in the source; their conditions may differ.", "data": [{"smiles": "CCCCCCCC/C(=C\\CCCCCCCC(=O)O)[N+](=O)[O-]", "note": "[CXA-10, 10-nitro-9(E)-octadec-9-enoic acid]", "values": [{"measurement": "GI AEs related to 10-nitro-9(E)-octadec-9-enoic acid", "setting": "[1]; 150 mg daily with food", "value": "not observed"}, {"measurement": "serum creatinine levels", "setting": "[1]; 150 mg daily", "value": "no changes"}, {"measurement": "24-hour urine creatinine excretion measurements", "setting": "[1]; 150 mg daily, Day 2 versus Day 12", "value": "nor any relevant changes"}, {"measurement": "renal structural injury (periodic acid-Schiff staining, blinded scoring)", "setting": "[2]; 12.5 mg/kg intravenously 1 hr prior to I/R injury", "value": "alleviation of injury; also recorded: preserved normal renal structure"}, {"measurement": "serum creatinine following ischemia", "setting": "[2]; 12.5 mg/kg intravenously 1 hr prior to ischemic event, 24 hr, p<0.01 at 24 hr only", "value": "statistically significant decrease; also recorded: significantly lowered"}, {"measurement": "urinary tetranor-PGDM", "setting": "[3]; end time point", "value": "lowered"}, {"measurement": "urinary 8-iso-PGF2a, compared with the high dose or enalapril", "setting": "[3]; low dose 2.5 mg/kg, not statistically significant", "value": "trended to have a greater reduction"}]}]}
